Data reported in patent US20100105689A1, “NOVEL 1,4- AND 1,5-DIARYLSUBSTITUTED 1,2,3-TRIAZOLES USEFUL AS POTASSIUM CHANNEL MODULATORS” (priority 2007, published 2010).

Legend:
[1] = target: T1, BK channels heterologously expressed in Xenopus laevis oocytes (Homo sapiens, UniProt Q12791); assay: BK channel opening activity, two-electrode voltage clamp in oocytes; type: cell-based; details: Compound at 30 μM, step from −40 mV to +30 mV, added after a stable current level was reached, FIG. 1
T1 construct: expressed in transfected cells; host or cells: Xenopus laevis oocytes
T1 sequence (Q12791 whole entry): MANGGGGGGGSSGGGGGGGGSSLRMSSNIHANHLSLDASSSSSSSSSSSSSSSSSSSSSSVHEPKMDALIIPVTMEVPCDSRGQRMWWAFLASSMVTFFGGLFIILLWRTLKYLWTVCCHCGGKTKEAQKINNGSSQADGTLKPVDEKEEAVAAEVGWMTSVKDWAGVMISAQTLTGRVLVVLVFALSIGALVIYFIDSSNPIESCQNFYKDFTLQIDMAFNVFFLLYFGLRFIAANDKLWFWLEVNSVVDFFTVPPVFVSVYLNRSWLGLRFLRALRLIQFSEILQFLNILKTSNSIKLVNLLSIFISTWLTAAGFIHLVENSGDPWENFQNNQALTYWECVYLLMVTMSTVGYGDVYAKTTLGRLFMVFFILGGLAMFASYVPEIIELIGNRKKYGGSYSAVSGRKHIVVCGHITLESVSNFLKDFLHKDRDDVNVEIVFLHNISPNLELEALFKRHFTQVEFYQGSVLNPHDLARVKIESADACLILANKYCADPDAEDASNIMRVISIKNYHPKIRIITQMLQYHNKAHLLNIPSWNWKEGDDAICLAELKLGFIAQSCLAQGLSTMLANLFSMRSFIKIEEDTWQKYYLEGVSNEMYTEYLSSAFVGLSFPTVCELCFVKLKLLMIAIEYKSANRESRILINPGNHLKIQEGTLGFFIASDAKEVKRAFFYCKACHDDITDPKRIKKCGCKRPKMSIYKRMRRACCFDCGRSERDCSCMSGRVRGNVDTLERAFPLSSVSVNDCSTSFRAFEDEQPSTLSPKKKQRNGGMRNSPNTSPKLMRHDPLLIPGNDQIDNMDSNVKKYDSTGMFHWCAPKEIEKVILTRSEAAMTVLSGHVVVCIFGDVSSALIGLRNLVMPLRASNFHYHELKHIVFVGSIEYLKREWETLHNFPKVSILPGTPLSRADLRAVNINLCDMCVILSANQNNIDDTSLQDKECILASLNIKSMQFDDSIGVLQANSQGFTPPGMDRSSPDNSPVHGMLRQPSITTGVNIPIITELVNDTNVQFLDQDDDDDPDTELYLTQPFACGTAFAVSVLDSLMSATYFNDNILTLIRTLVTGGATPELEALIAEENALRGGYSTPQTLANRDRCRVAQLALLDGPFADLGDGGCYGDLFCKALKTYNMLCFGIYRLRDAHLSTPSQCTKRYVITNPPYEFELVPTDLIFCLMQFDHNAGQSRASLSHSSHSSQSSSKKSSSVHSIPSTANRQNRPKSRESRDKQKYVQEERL
Method: In this example the BK channel opening activity of a 1,5-diarylsubstituted 1,2,3-triazole derivative for use according to the invention, i.e. CMPD-2 (herein designated Compound A), is determined using BK channels heterologously expressed in Xenopus laevis oocytes.
The electrical current through the BK channel is measured conventional two-electrode voltage clamp. BK current is activated by repeated step protocols. In brief, this protocol goes from a resting membrane potential of −40 mV lasting for 5 s to a depolarised step to +30 mV lasting for 1 s. The protocol was repeated continuously.
Having reached a stable current level, Compound A (30 μM), was added.

Row | melting point | BK current activated by depolarisation (BK channel opening activity) [1] | Compound
1 | 230.5 to 232.1 °C | – | FC(F)(F)c1cccc(-c2cnnn2-c2cc(Cl)ccc2-c2nnn[nH]2)c1 [CMPD-3, 5-{4-Chloro-2-[5-(3-trifluoromethyl-phenyl)-[1,2,3]triazol-1-yl]-phenyl}-1H-tetrazole]
2 | 181.1 to 183.6 °C | – | FC(F)(F)c1cccc(-c2cnnn2-c2cc(Cl)ccc2OCc2nnn[nH]2)c1 [CMPD-6, 5-{4-Chloro-2-[5-(3-trifluoromethyl-phenyl)-[1,2,3]triazol-1-yl]-phenoxymethyl}-1H-tetrazole]
3 | – | marked increase | FC(F)(F)c1ccc(-c2ccc(-n3nncc3-c3cc(C(F)(F)F)cc(C(F)(F)F)c3)c(-c3nnn[nH]3)c2)cc1 [Compound A, 5-{4-[5-(3,5-Bis-trifluoromethyl-phenyl)-[1,2,3]triazol-1-yl]-4′-trifluoromethyl-biphenyl-3-yl}-1H-tetrazole]
